# Experimental data taken from US20240309007A1, “CRYSTALLINE FORMS OF 3-{4-[(2R)-2-AMINOPROPOXY]PHENYL}-N-[(1R)- 1-(3-FLUOROPHENYL) ETHYL]IMIDAZO[1,2-B]PYRIDAZIN-6-AMINE AND SALTS THEREOF” (ANHEART THERAPEUTICS (HANGZHOU) CO., LTD., priority 2021, published 2024).
# “Also recorded” adds a separate entry of the source.
# Assay: Dynamic Vapor Sorption (DVS), hygroscopicity
# Format: physicochemical
# Settings: for hygroscopicity (in words): from DVS weight increase at 80% RH; for weight increase (DVS): at 80% RH, 25±1° C.
# Method: Dynamic Vapor Sorption (DVS) was performed by using Intrinsic DVS (Surface Measurement Systems, UK). A sample was weighed in an amount of 20-30 mg and was placed in a sample chamber. The measurement was performed at DMDT mode when the temperature of the sample chamber was maintained at 25±1° C.
crystalline form (XRPD) of the sample before and after the DVS test,hygroscopicity (in words),weight increase (DVS),Compound
,has hygroscopicity,about 8.2%,"C[C@@H](N)COc1ccc(-c2cnc3ccc(N[C@H](C)c4cccc(F)c4)nn23)cc1 [crystalline form B of Compound 1 adipate, 3-{4-[(2R)-2-aminopropoxy]phenyl}-N-[(1R)-1-(3-fluorophenyl)ethyl]imidazo[1,2-b]pyridazin-6-amine]"
changed,has hygroscopicity,,"C[C@@H](N)COc1ccc(-c2cnc3ccc(N[C@H](C)c4cccc(F)c4)nn23)cc1 [crystalline form B of Compound 1 free base] [3-{4-[(2R)-2-aminopropoxy]phenyl}-N-[(1R)-1-(3-fluorophenyl)ethyl]imidazo[1,2-b]pyridazin-6-amine]"
,low hygroscopicity,about 1%,"C[C@@H](N)COc1ccc(-c2cnc3ccc(N[C@H](C)c4cccc(F)c4)nn23)cc1 [crystalline form C of Compound 1 adipate, 3-{4-[(2R)-2-aminopropoxy]phenyl}-N-[(1R)-1-(3-fluorophenyl)ethyl]imidazo[1,2-b]pyridazin-6-amine]"
no crystalline form change,has hygroscopicity,,"C[C@@H](N)COc1ccc(-c2cnc3ccc(N[C@H](C)c4cccc(F)c4)nn23)cc1 [crystalline form C of Compound 1 free base] [3-{4-[(2R)-2-aminopropoxy]phenyl}-N-[(1R)-1-(3-fluorophenyl)ethyl]imidazo[1,2-b]pyridazin-6-amine]"
,low hygroscopicity,,"C[C@@H](N)COc1ccc(-c2cnc3ccc(N[C@H](C)c4cccc(F)c4)nn23)cc1 [crystalline form D of Compound 1 adipate, 3-{4-[(2R)-2-aminopropoxy]phenyl}-N-[(1R)-1-(3-fluorophenyl)ethyl]imidazo[1,2-b]pyridazin-6-amine]"
did not change,some hygroscopicity,2.896%,"C[C@@H](N)COc1ccc(-c2cnc3ccc(N[C@H](C)c4cccc(F)c4)nn23)cc1 [crystalline form D of Compound 1 free base] [3-{4-[(2R)-2-aminopropoxy]phenyl}-N-[(1R)-1-(3-fluorophenyl)ethyl]imidazo[1,2-b]pyridazin-6-amine]"

Compound,crystalline form (XRPD) of the sample before and after the DVS test,hygroscopicity (in words),weight increase (DVS)
"C[C@@H](N)COc1ccc(-c2cnc3ccc(N[C@H](C)c4cccc(F)c4)nn23)cc1 [crystalline form A of Compound 1 free base] [3-{4-[(2R)-2-aminopropoxy]phenyl}-N-[(1R)-1-(3-fluorophenyl)ethyl]imidazo[1,2-b]pyridazin-6-amine]",did not change,almost no hygroscopicity; also recorded: very low or nearly no hygroscopicity,
